Data as given in publication PMC2680961, “Homologous desensitization of signalling by the alpha (α) isoform of the human thromboxane A2 receptor: A specific role for nitric oxide signalling” (Biochimica et Biophysica Acta, 2007).

Tests used:
[1] = set-up: method as in PMID 10508233; details: rapidly hydrolysed to inactive metabolite TXB2; estimated; cited from earlier work
[2] = test system: eNOS; assay: eNOS phosphorylation (anti-phospho eNOS^Ser1177 western blot); assay type: cell-based, human; details: HEK.TPα cells (also HEK 293, HEK.TPβ); 1 μM U46619 or 10 U/ml Thrombin, 5 min, 37 °C
Description: In order to assess eNOS phosphorylation, HEK.TPα, HEK.TPβ or HEK 293 cells (2 × 10^6 cells/10-cm dish) were plated some 48 h prior to experimentation. Cells were incubated with vehicle, 1 μM U46619 or 10 U/ml Thrombin for 5 min at 37 °C and aliquots of whole cell protein (100 μg/lane) were analysed by SDS-PAGE/western blot. Blots were initially screened using the anti-phospho eNOS^1177 as per supplier's instructions (Cell Signalling Technology) and, following stripping, were subsequently re-screened using the anti-eNOS (Transduction Laboratories).

Compound: CCCCC[C@H](O)/C=C/[C@H]1O[C@H]2C[C@H](O2)[C@@H]1C/C=C\CCCC(=O)O [TXA2]
- half-life [1]: 30 s

Compound: thrombin
- eNOS phosphorylation at Ser^1177 [2]: readily lead to eNOS phosphorylation
